Legend:
A549 = assay: Antiproliferative SRB assay (NCI protocol), A549; format: cell-based, human; details: for GI50: A549 (lung), 48 h drug exposure, SRB, ± SD; for Selectivity index (SI) on tumor cells: CC50 splenocytes / GI50 A549
Procedure: (§1) In vitro antiproliferative activity was evaluated using the protocol of the National Cancer Institute (NCI) after 48 h of drug exposure using the sulforhodamine B (SRB) assay.
(§2) The following human solid tumor cell lines were used in this study: HBL-100 (breast), HeLa (cervix), SW1573 (non-small cell lung), T-47D (breast), A549 (lung), and WiDr (colon). These cell lines were a kind gift from Prof. G. J. Peters (VU Medical Center, Amsterdam, The Netherlands). Cells were maintained in 25 cm^2 culture flasks in RPMI 1640 supplemented with 5% heat-inactivated fetal calf serum and 2 mM L-glutamine in a 37 °C, 5% CO2, 95% humidified air incubator. Exponentially growing cells were trypsinized and resuspended in antibiotic containing medium (100 units penicillin G and 0.1 mg of streptomycin per mL). Single cell suspensions displaying > 97% viability by trypan blue dye exclusion test were subsequently counted. After counting, dilutions were made to give the appropriate cell densities for inoculation onto 96-well microtiter plates. Cells were inoculated in a volume of 100 μL per well at densities of 5000 (WiDr and T-47D), and 2500 (A549, HeLa, SW1573 and HBL-100) cells per well, based on their doubling times.
(§3) Chemosensitivity tests were performed using the SRB assay of the NCI with slight modifications. Briefly, pure compounds were initially dissolved in DMSO at 400 times the desired final maximum test concentration. Control cells were exposed to an equivalent concentration of DMSO (0.25% v/v, negative control). Each agent was tested in triplicates at different dilutions in the range 1–100 μM. Drug treatment started on day 1 after plating. Drug incubation periods were 48 h, after which cells were precipitated with 25 μL of ice-cold 50% (w/v) trichloroacetic acid and fixed for 60 min at 4 °C. Then, the SRB assay was performed. The optical density (OD) of each well was measured at 530 nm, using BioTek’s PowerWave XS Absorbance Microplate Reader. Values were corrected for background OD from wells containing only culture medium. The percentage growth (PG) was calculated with respect to untreated control cells (C) at each level of drug concentrations based on the difference in OD at the start time (T0) and at the end of drug exposure (T), according to NCI formulas. Therefore, if T is greater than or equal to T0, the calculation is 100 × ((T − T0)/(C − T0)). If T is lower than T0, denoting cell death, the calculation is 100 × ((T − T0)/(T0)). The effect is defined as the growth percentage, where 50% growth inhibition (GI50) represents the concentration at which PG is +50. Based on these calculations, a PG value of 0 corresponds to the number of cells present at the beginning of drug exposure, while negative PG values denote net cell death.

WiDr = assay: Antiproliferative SRB assay (NCI protocol), WiDr; format: cell-based, human; details: for GI50: WiDr (colon), 48 h drug exposure, SRB, ± SD; for Selectivity index (SI) on tumor cells: CC50 splenocytes / GI50 WiDr
Procedure: as §1, §2, §3

T-47D = assay: Antiproliferative SRB assay (NCI protocol), T-47D; format: cell-based, human; details: for GI50: T-47D (breast), 48 h drug exposure, SRB, ± SD; for Selectivity index (SI) on tumor cells: CC50 splenocytes / GI50 T-47D
Procedure: as §1, §2, §3

HBL-100 = assay: Antiproliferative SRB assay (NCI protocol), HBL-100; format: cell-based, human; details: for GI50: HBL-100 (breast), 48 h drug exposure, SRB, ± SD
Procedure: as §1, §2, §3

SW1573 = assay: Antiproliferative SRB assay (NCI protocol), SW1573; format: cell-based, human; details: for GI50: SW1573 (non-small cell lung), 48 h drug exposure, SRB, ± SD; for Selectivity index (SI) on tumor cells: CC50 splenocytes / GI50 SW1573
Procedure: as §1, §2, §3

HeLa = assay: Antiproliferative SRB assay (NCI protocol), HeLa; format: cell-based, human; details: for GI50: HeLa (cervix), 48 h drug exposure, SRB, ± SD; for Selectivity index (SI) on tumor cells: CC50 splenocytes / GI50 HeLa
Procedure: as §1, §2, §3

[1] = tested on: HeLa, T-47D, WiDr, A549, HBL-100, and SW1573 cell lines; assay: Antiproliferative SRB assay, whole panel of human solid tumor cell lines; format: cell-based; details: for Antiproliferative activity (in words): solid tumor cell lines evaluated; for GI50: Homo sapiens, minimal to maximal GI50 across the cell lines tested, 48 h, SRB, read-out: GI50 values, range over all cell lines tested
Procedure: as §1, §2, §3

[2] = tested on: Trypanosoma cruzi epimastigotes (RA strain); assay: In vitro anti-Trypanosoma cruzi assay ((3H) thymidine uptake); format: cell-based; details: for Trypanocidal activity (in words): T. cruzi; for IC50: Trypanosoma cruzi, epimastigotes (RA strain), ± SD; for Selectivity Index on T. cruzi epimastigotes: CC50 splenocytes / IC50 epimastigotes
Procedure: Trypanosoma cruzi epimastigotes (RA strain, from discrete typing unit (DTU) VI) were grown in a biphasic medium. Cultures were maintained by weekly passages at 28 °C [18].
The growth inhibition of T. cruzi epimastigotes was evaluated by a (^3H) thymidine uptake assay as previously described. Natural sesquiterpenes and derivatives were evaluated at concentrations ranging from 1.5 to 50 µg/mL. Benznidazole (Active Pharmaceutical Ingredient) was used as positive control (Elea). The percentage of inhibition was calculated as 100 = {((cpm of treated parasites)/(cpm of untreated parasites)) × 100}.
Figure 5 Effect of the natural sesquiterpene tessaric acid (1), ilicic acid (2), and ilicic alcohol (3) and their derivatives on T. cruzi. Epimastigotes (RA strain) were cultured in the presence of the compounds (50–1.5 µg/mL). Determinations were performed by triplicate. The results are expressed as the mean ± SD. (A) Effect of tessaric acid and derivatives on epimastigotes; (B) Effect of ilicic acid and derivatives on epimastigotes; (C) Effect of ilicic alcohol and derivatives on epimastigotes.

[3] = Cytotoxicity on primary cell culture (flow cytometry, PI); format: cell-based; details: Balb/c, mouse, primary splenocytes (spleen cells), ± SD, read-out: Cytotoxic activity on spleen cells (CC50)
Procedure: The cytotoxicity of the natural sesquiterpenes (1–3) and derivatives (4–19) was determined on primary cell cultures (splenocytes obtained from Balb/c mouse). […] Derivatives of tessaric acid have shown an improvement in CC50 values in comparison with the natural sesquiterpene 1. […] All the derivatives synthesized from alcohol ilicic (compounds 10–19) were more toxic to mammalian cells than the natural compound (3).
The cytotoxicity of the compounds was evaluated on splenocytes obtained from Balb/c mouse (1.5 × 10^5) and incubated with different drug dilutions (5–200 μg/mL) as previously described. Cell death was determined by flow cytometry using a BD FACSaria II cytometer. Cells incubated only with drug vehicle were used as 100% viability control, and death percentage was calculated according to the following formula: Death%=1−(%PI^−cells)drug−treated/(%PI^−cells)100% viability control × 100
The concentration capable of causing 50% cell death (CC50) was determined using a non-linear regression approach.

Compound	GI50 (WiDr; Homo sapiens) [µM]	GI50 (T-47D; Homo sapiens, T47D) [µM]	GI50 (HBL-100; Homo sapiens) [µM]	GI50 (SW1573; Homo sapiens) [µM]	IC50 [2] [µM]	GI50 (HeLa; Homo sapiens) [µM]	GI50 (A549; Homo sapiens) [µM]	Selectivity index (SI) on tumor cells (WiDr)	Selectivity index (SI) on tumor cells (T-47D)	CC50 [3] [µM]	Selectivity Index on T. cruzi epimastigotes [2]	Selectivity index (SI) on tumor cells (HeLa)	other results
N.N.[Cl][Pt][Cl] [Cisplatin, reference compound]	–	–	–	–	–	–	–	–	–	–	–	–	GI50 (A549): 4.9 µM; GI50 (WiDr): 23 µM; GI50 (T-47D): 17 µM; GI50 (HBL-100): 1.9 µM; GI50 (SW1573): 2.7 µM; GI50 (HeLa): 1.8 µM
C=C(C(=O)O)[C@@H]1CC[C@@]2(C)CCC[C@@](C)(O)[C@@H]2C1 [Compound 2, ilicic acid]	> 100	> 100	> 100	> 100	> 198	> 100	–	–	–	–	–	–	Antiproliferative activity (in words) [1]: did not show antiproliferative activity; Trypanocidal activity (in words) [2]: nor trypanocidal activity
C=C(CO)[C@@H]1CC[C@@]2(C)CCC[C@@](C)(O)[C@@H]2C1 [Compound 3, ilicic alcohol]	> 100	> 100	> 100	> 100	156	> 100	–	–	–	–	–	–	Antiproliferative activity (in words) [1]: did not show antiproliferative activity; Trypanocidal activity (in words) [2]: nor trypanocidal activity
C=C(C(=O)N(c1ccccc1)C(C)(C)C(=O)NC(C)(C)C)[C@@H]1CCC2=CC(=O)C[C@H](C)[C@@]2(C)C1 [Compound 4]	98	95	> 100	57	16.3	68	68	0.2	0.2	17.3	1.1	0.3	Selectivity index (SI) on tumor cells (A549): 0.25; Selectivity index (SI) on tumor cells (SW1573): 0.3
C=C(C(=O)N(Cc1ccccc1)C(C)(C)C(=O)NC(C)(C)C)[C@@H]1CCC2=CC(=O)C[C@H](C)[C@@]2(C)C1 [Compound 5]	> 100	> 100	> 100	> 100	9.3	> 100	> 100	–	–	44.7	4.8	–	–
C=C(C(=O)N(c1ccccc1)C(C)(C)C(=O)NCc1ccccc1)[C@@H]1CCC2=CC(=O)C[C@H](C)[C@@]2(C)C1 [Compound 6]	44	30	61	40	> 100	36	33	2.4	3.5	104	–	2.9	Selectivity index (SI) on tumor cells (A549): 3.1; GI50 [1]: 17 to 64 µM; Selectivity index (SI) on tumor cells (HBL-100; CC50 splenocytes / GI50 HBL-100): 1.7; Selectivity index (SI) on tumor cells (SW1573): 2.6
C=C(Cn1cc(CCCCCCCCCC)nn1)[C@@H]1CC[C@@]2(C)CCC[C@@](C)(O)C2C1 (stereo partly drawn) [Compound 16]	12	17	–	–	8.8	13	–	6.8	4.8	82.4	9.4	6.3	GI50 [1]: 12 to 17 µM
C#CCCCc1cn(CC(=C)[C@@H]2CC[C@@]3(C)CCC[C@@](C)(O)C3C2)nn1 (stereo partly drawn) [Compound 17]	31	29	–	–	14.8	31	–	1.3	1.4	40.4	2.7	1.3	–
C=C(Cn1cc(Cc2ccccc2)nn1)[C@@H]1CC[C@@]2(C)CCC[C@@](C)(O)C2C1 (stereo partly drawn) [Compound 18]	39	44	–	–	30.2	> 100	–	1.6	1.4	62.2	2.1	–	–
C=C(Cn1cc(-c2ccccc2)nn1)[C@@H]1CC[C@@]2(C)CCC[C@@](C)(O)C2C1 (stereo partly drawn) [Compound 19]	41	61	–	–	48.2	79	–	4.6	3.1	187	3.9	2.4	–
